# Assay results reported in US20100311741A1, “Bicyclosulfonyl Acid (BCSA) Compounds and Their Use as Therapeutic Agents” (INHIBOX LTD., priority 2007, published 2010).
row,SMILES,melting point
1,"COc1cccc2c1C(CC(=O)NO)N(c1ccccc1)S2(=O)=O (stereo not shown) [Compound 54.1, 2-(4-Methoxy-1,1-dioxo-2-phenyl-2,3-dihydro-1H-benzo[d]isothiazol-3-yl)-N-hydroxyacetamide]",188 to 190 °C
2,"O=C(CC1c2c(Cl)cccc2S(=O)(=O)N1c1ccccc1)NO (stereo not shown) [Compound 54.2, 2-(4-Chloro-1,1-dioxo-2-phenyl-2,3-dihydro-1H-benzo[d]isothiazol-3-yl)-N-hydroxyacetamide]",204 to 206 °C
3,O=C(CC1c2cccc(C(F)(F)F)c2S(=O)(=O)N1c1ccccc1)NO (stereo not shown) [Compound 54.3],187 to 189 °C
4,"O=C(CC1c2cccc(Cl)c2S(=O)(=O)N1c1ccccc1)NO (stereo not shown) [Compound 54.7, 2-(7-Chloro-1,1-dioxo-2-phenyl-2,3-dihydro-1H-benzo[d]isothiazol-3-yl)-N-hydroxyacetamide]",> 188 °C (dec.)
5,"COc1cccc2c1S(=O)(=O)N(c1ccccc1)C2CC(=O)NO (stereo not shown) [Compound 54.10, (7-Methoxy-1,1-dioxo-2-phenyl-2,3-dihydro-1H-benzo[d]isothiazol-3-yl)-N-hydroxyacetamide]",> 161 °C (dec.)
6,"COc1cc(Cl)cc2c1S(=O)(=O)N(c1ccccc1)C2CC(=O)NO (stereo not shown) [Compound 54.11, (5-Chloro-7-Methoxy-1,1-dioxo-2-phenyl-2,3-dihydro-1H-benzo[d]isothiazol-3-yl)-N-hydroxyacetamide]",> 170 °C (dec.)
7,"COc1ccc2c(c1Cl)C(CC(=O)NO)N(c1ccccc1)S2(=O)=O (stereo not shown) [Compound 54.12, (4-Chloro-5-Methoxy-1,1-dioxo-2-phenyl-2,3-dihydro-1H-benzo[d]isothiazol-3-yl)-N-hydroxyacetamide]",184 to 188 °C (dec.)
8,"O=C(NO)C1c2ccccc2S(=O)(=O)N1c1ccccc1 (stereo not shown) [Compound 62.1, 1,1-Dioxo-2-phenyl-2,3-dihydro-1H-benzo[d]isothiazole-3-carboxylic acid hydroxyamide]",188 to 191 °C
9,"O=C(NO)C1c2c(Cl)cccc2S(=O)(=O)N1c1ccccc1 (stereo not shown) [Compound 62.2, 4-Chloro-1,1-dioxo-2-phenyl-2,3-dihydro-1H-benzo[d]isothiazole-3-carboxylic acid hydroxyamide]",167 to 170 °C
10,"COc1cccc(N2C(CC(=O)NO)c3ccccc3S2(=O)=O)c1 (stereo not shown) [Compound (5.7), 2-[2-(3-Methoxyphenyl)-1,1-dioxo-2,3-dihydro-1H-benzo[d]isothiazol-3-yl]-N-hydroxyacetamide]",147 to 148 °C
11,"COc1ccc(N2C(CC(=O)NO)c3ccccc3S2(=O)=O)cc1 (stereo not shown) [Compound (5.8), 2-[2-(4-Methoxyphenyl)-1,1-dioxo-2,3-dihydro-1H-benzo[d]isothiazol-3-yl]-N-hydroxyacetamide]",185 to 186 °C
12,"O=C(CC1c2ccccc2S(=O)(=O)N1c1cccc(Oc2ccccc2)c1)NO (stereo not shown) [Compound (5.9), 2-[2-(3-Phenoxyphenyl)-1,1-dioxo-2,3-dihydro-1H-benzo[d]isothiazol-3-yl]-N-hydroxyacetamide]",181 to 182 °C
13,"O=C(CC1c2ccccc2S(=O)(=O)N1c1ccc(Cl)cc1)NO (stereo not shown) [Compound (5.10), 2-[2-(4-Chlorophenyl)-1,1-dioxo-2,3-dihydro-1H-benzo[d]isothiazol-3-yl]-N-hydroxyacetamide]",184 to 185 °C
14,"CSc1ccc(N2C(CC(=O)NO)c3ccccc3S2(=O)=O)cc1 (stereo not shown) [Compound (5.20), 2-[1,1-Dioxo-2-(4-methylsulfanylphenyl)-2,3-dihydro-1H-benzo[d]isothiazol-3-yl]-N-hydroxyacetamide]",197 to 198 °C (dec.)
15,"O=C(CC1c2ccccc2S(=O)(=O)N1c1ccc(-c2ccccc2)cc1)NO (stereo not shown) [Compound (5.23), 2-(2-Biphenyl-4-yl-1,1-dioxo-2,3-dihydro-1H-benzo[d]isothiazol-3-yl)-N-hydroxyacetamide]",207 to 208 °C (dec.)
16,"O=C(CC1c2ccccc2S(=O)(=O)N1c1ccc(Oc2ccccc2)cc1)NO (stereo not shown) [Compound (5.24), 2-[1,1-Dioxo-2-(4-phenoxy-phenyl)-2,3-dihydro-1H-benzo[d]isothiazol-3-yl]-N-hydroxyacetamide]",174 to 175 °C
17,"O=C(CC1c2ccccc2S(=O)(=O)N1c1ccc(OCc2ccccc2)cc1)NO (stereo not shown) [Compound (5.25), 2-[2-(4-Benzyloxy-phenyl)-1,1-dioxo-2,3-dihydro-1H-benzo[d]isothiazol-3-yl]-N-hydroxyacetamide]",186 to 187 °C
18,"O=C(CC1c2ccccc2S(=O)(=O)N1c1ccc(-n2cccc2)cc1)NO (stereo not shown) [Compound (5.26), 2-[1,1-Dioxo-2-(4-pyrrol-1-yl-phenyl)-2,3-dihydro-1H-benzo[d]isothiazol-3-yl]-N-hydroxyacetamide]",192 to 194 °C (dec.)
19,"O=C(CC1c2ccccc2S(=O)(=O)N1c1ccc(-n2ccnc2)cc1)NO (stereo not shown) [Compound (5.27), 2-[2-(4-Imidazol-1-yl-phenyl)-1,1-dioxo-2,3-dihydro-1H-benzo[d]isothiazol-3-yl]-N-hydroxyacetamide]",199 to 201 °C (dec.)
20,"CCCCOc1ccc(N2C(CC(=O)NO)c3ccccc3S2(=O)=O)cc1 (stereo not shown) [Compound (5.34), 2-[2-(4-Butoxyphenyl)-1,1-dioxo-2,3-dihydro-1H-benzo[d]isothiazol-3-yl]-N-hydroxyacetamide]",165 to 166 °C

# More lines, now with the values ahead:
row,melting point,SMILES
1,205 to 207 °C (dec.),"O=C(CC1c2ccccc2S(=O)(=O)N1c1ccc(-n2cncn2)cc1)NO (stereo not shown) [Compound (5.28), 2-[1,1-Dioxo-2-(4-[1,2,4]triazol-1-yl-phenyl)-2,3-dihydro-1H-benzo[d]isothiazol-3-yl]-N-hydroxyacetamide]"
2,138 to 140 °C (dec.),"O=C(CC1c2ccccc2S(=O)(=O)N1c1ccc(-c2cnco2)cc1)NO (stereo not shown) [Compound (5.29), 2-[2-(4-Oxazol-5-yl-phenyl)-1,1-dioxo-2,3-dihydro-1H-benzo[d]isothiazol-3-yl]-N-hydroxyacetamide]"
3,179 to 181 °C (dec.),"Cc1nc(-c2ccc(N3C(CC(=O)NO)c4ccccc4S3(=O)=O)cc2)cs1 (stereo not shown) [Compound (5.30), 2-{2-[4-(2-Methylthiazol-4-yl)phenyl]-1,1-dioxo-2,3-dihydro-1H-benzo[d]isothiazol-3-yl}-N-hydroxyacetamide]"
4,185 to 186 °C,"CN(C)c1ccc(N2C(CC(=O)NO)c3ccccc3S2(=O)=O)cc1 (stereo not shown) [Compound (5.31), 2-[2-(4-Dimethylaminophenyl)-1,1-dioxo-2,3-dihydro-1H-benzo[d]isothiazol-3-yl]-N-hydroxyacetamide]"
5,204 to 206 °C,"O=C(CC1c2ccccc2S(=O)(=O)N1c1ccc(N2CCOCC2)cc1)NO (stereo not shown) [Compound (5.32), 2-[2-(4-Morpholin-4-ylphenyl)-1,1-dioxo-2,3-dihydro-1H-benzo[d]isothiazol-3-yl]-N-hydroxyacetamide]"
6,177 to 178 °C,"CCOc1ccc(N2C(CC(=O)NO)c3ccccc3S2(=O)=O)cc1 (stereo not shown) [Compound (5.33), 2-[2-(4-Ethoxyphenyl)-1,1-dioxo-2,3-dihydro-1H-benzo[d]isothiazol-3-yl]-N-hydroxyacetamide]"
7,145 to 147 °C (dec.),"O=C(CC1c2ccccc2S(=O)(=O)N1c1cccc(F)c1)NO (stereo not shown) [Compound (5.36), 2-[2-(3-Fluoro-phenyl)-1,1-dioxo-2,3-dihydro-1H-benzo[d]isothiazol-3-yl]-N-hydroxyacetamide]"
8,152 to 154 °C,"O=C(CC1NS(=O)(=O)c2ccccc21)NO (stereo not shown) [Compound (5.37), 2-(1,1-Dioxo-2,3-dihydro-1H-benzo[d]isothiazol-3-yl)-N-hydroxyacetamide]"
9,189 to 190 °C,"COc1ccc(N2C(CC(=O)NO)c3ccccc3S2(=O)=O)cn1 (stereo not shown) [Compound (5.40), 2-[2-(6-Methoxy-pyridin-3-yl)-1,1-dioxo-2,3-dihydro-1Hbenzo[d]isothiazol-3-yl]-N-hydroxyacetamide]"
10,141 to 143 °C,"O=C(CC1c2ccccc2S(=O)(=O)N1C1CCN(Cc2ccccc2)CC1)NO (stereo not shown) [Compound (5.42), 2-[2-(1-Benzylpiperidin-4-yl)-1,1-dioxo-2,3-dihydro-1H-benzo[d]isothiazol-3-yl]-N-hydroxyacetamide]"
11,166 to 168 °C (dec.),"C=CCOc1ccc(N2C(CC(=O)NO)c3ccccc3S2(=O)=O)cc1 (stereo not shown) [Compound (5.47), 2-[2-(4-Allyloxy-phenyl)-1,1-dioxo-2,3-dihydro-1H-benzo[d]isothiazol-3-yl]-N-hydroxyacetamide]"
12,212 to 214 °C (dec.),"O=C(CC1c2ccccc2S(=O)(=O)N1c1ccc(OCc2ccncc2)cc1)NO (stereo not shown) [Compound (5.48), 2-{1,1-Dioxo-2-[4-(pyridin-4-ylmethoxy)phenyl]-2,3-dihydro-1H-benzo[d]isothiazol-3-yl}-N-hydroxyacetamide]"
13,> 170 °C (dec.),"O=C(CC1c2ccccc2S(=O)(=O)N1c1ccc(OCc2ccccn2)cc1)NO (stereo not shown) [Compound (5.50), 2-{1,1-Dioxo-2-[4-(pyridin-2-ylmethoxy)phenyl]-2,3-dihydro-1H-benzo[d]isothiazol-3-yl}-N-hydroxyacetamide]"
14,135 to 137 °C (dec.),"CCC#CCOc1ccc(N2C(CC(=O)NO)c3ccccc3S2(=O)=O)cc1 (stereo not shown) [Compound (5.52), 2-[1,1-Dioxo-2-(4-pent-2-ynyloxy-phenyl)-2,3-dihydro-1H-benzo[d]isothiazol-3-yl]-N-hydroxyacetamide]"
15,155 to 157 °C (dec.),"C#CCOc1ccc(N2C(CC(=O)NO)c3ccccc3S2(=O)=O)cc1 (stereo not shown) [Compound (5.53), 2-[1,1-Dioxo-2-(4-prop-2-ynyloxy-phenyl)-2,3-dihydro-1H-benzo[d]isothiazol-3-yl]-N-hydroxyacetamide]"
16,148 to 150 °C (dec.),"C#CCCOc1ccc(N2C(CC(=O)NO)c3ccccc3S2(=O)=O)cc1 (stereo not shown) [Compound (5.54), 2-[2-(4-But-3-ynyloxy-phenyl)-1,1-dioxo-2,3-dihydro-1H-benzo[d]isothiazol-3-yl]-N-hydroxyacetamide]"
17,200 to 204 °C (dec.),"Cc1cc(C(C)Oc2ccc(N3C(CC(=O)NO)c4ccccc4S3(=O)=O)cc2)c2ccccc2n1 (stereo not shown) [Compound (5.56), 2-(2-{4-[1-(2-Methylquinolin-4-yl)ethoxy]-phenyl}-1,1-dioxo-2,3-dihydro-1H-benzo[d]isothiazol-3-yl)-N-hydroxyacetamide]"
